Assay results from BindingDB's records for patent US20240166639 (Leukos Biotech, 2024).

How the values were obtained:
[1] = target: 5-hydroxytryptamine receptor 1B (Homo sapiens, UniProt P28222); experiment: Binding at Human Serotonin Receptors Competition Binding in Human 5-HT1B Receptor Assay
Description: Serotonin 5-HT1B receptor competition binding experiments were carried out in a polypropylene 96-well plate. […] The reaction mixture (Vt: 250 μl/well) was incubated at 25° C. for 90 min, 200 μL was transfered to GF/C 96-well plate (Millipore, Madrid, Spain) pretreated with 0.5% of PEI and treated with binding buffer (Tris-HCl 50 mM, EDTA 1 mM, MgCl2 10 mM, pH=7.4), after was filtered and washed four times with 250 μl wash buffer (Tris-HCl 50 mM, pH=7.4), before measuring in a microplate beta scintillation counter (Microbeta Trilux, PerkinElmer, Madrid, Spain).

[2] = target: 5-hydroxytryptamine receptor 2A (Homo sapiens, UniProt P28223); experiment: Competition Binding in Human 5-HT2A Receptor
Sequence of 5-hydroxytryptamine receptor 2A (P28223 whole entry): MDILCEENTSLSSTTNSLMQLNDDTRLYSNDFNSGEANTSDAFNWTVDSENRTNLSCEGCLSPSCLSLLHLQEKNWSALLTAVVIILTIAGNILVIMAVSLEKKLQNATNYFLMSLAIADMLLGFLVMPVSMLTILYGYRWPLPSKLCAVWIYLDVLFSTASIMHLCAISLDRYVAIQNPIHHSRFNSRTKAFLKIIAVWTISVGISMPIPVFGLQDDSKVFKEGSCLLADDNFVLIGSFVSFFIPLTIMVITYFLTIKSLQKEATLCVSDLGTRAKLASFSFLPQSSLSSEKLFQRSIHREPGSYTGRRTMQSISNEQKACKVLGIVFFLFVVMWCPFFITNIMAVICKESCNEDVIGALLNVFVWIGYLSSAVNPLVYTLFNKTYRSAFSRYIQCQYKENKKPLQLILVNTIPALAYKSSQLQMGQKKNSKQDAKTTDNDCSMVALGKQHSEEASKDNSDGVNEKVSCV
Description: Serotonin 5-HT2A receptor competition binding experiments were carried out in a polypropilene 96-well plate. In each well was incubated 80 μg of membranes from CHO-5-HT2A cell line prepared in the laboratory (protein concentration=4337 μg/ml), 1 nM [3H]-Ketanserin (47.3 Ci/mmol, 1 mCi/ml, Perkin Elmer NET791250UC) and compounds studied and standard. Non-specific binding was determined in the presence of Methysergide 1 μM (Sigma M137). The reaction mixture (Vt: 250 μl/well) was incubated at 37° C. for 30 min, 200 μL was transfered to GF/B 96-well plate (Millipore, Madrid, Spain) pretreated with 0.5% of PEI and treated with binding buffer (Tris-HCl 50 mM, pH=7.4), after was filtered and washed six times with 250 μl wash buffer (Tris-HCl 50 mM, pH=6.6), before measuring in a microplate beta scintillation counter (Microbeta Trilux, PerkinElmer, Madrid, Spain).

Sequence of 5-hydroxytryptamine receptor 1B (P28222 whole entry): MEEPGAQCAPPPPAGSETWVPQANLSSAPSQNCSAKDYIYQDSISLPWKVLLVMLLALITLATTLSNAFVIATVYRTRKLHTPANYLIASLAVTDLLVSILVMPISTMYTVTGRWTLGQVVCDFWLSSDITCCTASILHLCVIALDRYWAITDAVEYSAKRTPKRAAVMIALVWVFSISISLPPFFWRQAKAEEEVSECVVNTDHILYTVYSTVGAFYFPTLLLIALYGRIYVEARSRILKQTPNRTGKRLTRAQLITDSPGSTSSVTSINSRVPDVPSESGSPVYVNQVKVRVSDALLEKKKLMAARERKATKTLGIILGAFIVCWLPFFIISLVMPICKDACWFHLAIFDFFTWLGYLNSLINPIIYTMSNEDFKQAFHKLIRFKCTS

Ki [1]: 0.4 nM | Ki [2]: 2500 nM
SMILES: Cc1nc(-c2ccc(-c3ccc(C(=O)Nc4cc(OCCN(C)C)c(Br)cn4)cn3)c(C3CC3)c2)no1 [US20240166639, Example 39]
